ChEMBL document CHEMBL1156533 (2007)
Activity calls are given as the source filed them. The rule behind the calls is not given here.

What was measured:
Mus musculus [1] = species: Mus musculus; assay: Antiasthmatic effect in ovalbumin-challenged BALB/c mouse assessed as decrease in eosinophil infiltration in bronchoalveolar lavage fluid; type: functional, Lung
Mus musculus [2] = species: Mus musculus; assay: Antiasthmatic effect in ovalbumin-challenged BALB/c mouse assessed as decrease in IL5 level in bronchoalveolar lavage fluid by ELISA; type: functional, Lung
Mus musculus [3] = species: Mus musculus; assay: Antiasthmatic effect in ovalbumin-challenged BALB/c mouse assessed as decrease in IL13 level in bronchoalveolar lavage fluid by ELISA; type: functional, Lung
[4] = Inhibition of IL5 production in transgenic BALB/c mouse TH2 cells at 500 uM after 48 hrs; type: functional
[5] = Inhibition of IL13 production in transgenic BALB/c mouse TH2 cells at 500 uM after 48 hrs; type: functional
[6] = Inhibition of IL10 production in transgenic BALB/c mouse TH2 cells at 500 uM after 48 hrs; type: functional
[7] = Inhibition of IL4 production in transgenic BALB/c mouse TH2 cells at 500 uM after 48 hrs; type: functional
Mus musculus [8] = species: Mus musculus; assay: Antiasthmatic effect in ovalbumin-challenged BALB/c mouse assessed as decrease in eosinophil infiltration in bronchoalveolar lavage fluid at 100 ug; type: functional, Lung
Mus musculus [9] = species: Mus musculus; assay: Antiasthmatic effect in ovalbumin-challenged BALB/c mouse assessed as decrease in IL5 level in bronchoalveolar lavage fluid at 100 ug by ELISA; type: functional, Lung
Mus musculus [10] = species: Mus musculus; assay: Antiasthmatic effect in ovalbumin-challenged BALB/c mouse assessed as decrease in IL13 level in bronchoalveolar lavage fluid at 100 ug by ELISA; type: functional, Lung
Mus musculus [11] = species: Mus musculus; assay: Antiasthmatic effect in ovalbumin-challenged BALB/c mouse assessed as decrease in eosinophil infiltration in bronchoalveolar lavage fluid at 25 ug; type: functional, Lung
Mus musculus [12] = species: Mus musculus; assay: Antiasthmatic effect in ovalbumin-challenged BALB/c mouse assessed as decrease in IL5 level in bronchoalveolar lavage fluid at 25 ug by ELISA; type: functional, Lung
Mus musculus [13] = species: Mus musculus; assay: Antiasthmatic effect in ovalbumin-challenged BALB/c mouse assessed as decrease in IL13 level in bronchoalveolar lavage fluid at 25 ug by ELISA; type: functional, Lung
Mus musculus [14] = species: Mus musculus; assay: Antiasthmatic effect in ovalbumin-challenged BALB/c mouse assessed as decrease in eosinophil infiltration in bronchoalveolar lavage fluid at 6 ug; type: functional, Lung
Mus musculus [15] = species: Mus musculus; assay: Antiasthmatic effect in ovalbumin-challenged BALB/c mouse assessed as decrease in IL5 level in bronchoalveolar lavage fluid at 6 ug by ELISA; type: functional, Lung
Mus musculus [16] = species: Mus musculus; assay: Antiasthmatic effect in ovalbumin-challenged BALB/c mouse assessed as decrease in IL13 level in bronchoalveolar lavage fluid at 6 ug by ELISA; type: functional, Lung
Mus musculus [17] = assay: Antiasthmatic effect in ovalbumin-challenged transgenic TH2 cells transfected SCID mouse assessed as decrease in eosinophil infiltration in bronchoalveolar lavage fluid at 100 ug administered 4-6 hrs after challenge; type: functional, Lung
Mus musculus [18] = assay: Antiasthmatic effect in ovalbumin-challenged transgenic TH2 cells transfected SCID mouse assessed as decrease in IL5 level in bronchoalveolar lavage fluid at 100 ug administered 4-6 hrs after challenge by ELISA; type: functional, Lung
Mus musculus [19] = assay: Antiasthmatic effect in ovalbumin-challenged transgenic TH2 cells transfected SCID mouse assessed as decrease in IL13 level in bronchoalveolar lavage fluid at 100 ug administered 4-6 hrs after challenge by ELISA; type: functional, Lung
TH2 [20] = assay: Induction of apoptosis in ovalbumin-challenged transgenic BALB/c mouse TH2 cells transfected in SCID mouse assessed as decrease in viable cell in lungs; type: functional, cell-based
Mus musculus [21] = assay: Antiasthmatic activity in ovalbumin-challenged BALB/c mouse assessed as reduction in airway resistance at 100 ug, intratracheally administered 4 hrs after challenge; type: functional, organism-based
Mus musculus [22] = species: Mus musculus; assay: Antiasthmatic effect in ovalbumin-challenged BALB/c mouse assessed as decrease in peribronchial eosinophil infiltration in bronchoalveolar lavage fluid; type: functional, organism-based; conditions: Lung
Mus musculus [23] = species: Mus musculus; assay: Antiasthmatic effect in ovalbumin-challenged BALB/c mouse assessed as decrease in perivascular eosinophil infiltration in bronchoalveolar lavage fluid; type: functional, organism-based; conditions: Lung
[24] = Inhibition of IL4 production in transgenic BALB/c mouse TH2 cells at 100 uM after 48 hrs; type: functional
[25] = Inhibition of IL4 production in transgenic BALB/c mouse TH2 cells at 50 uM after 48 hrs; type: functional
[26] = Inhibition of IL4 production in transgenic BALB/c mouse TH2 cells at 10 uM after 48 hrs; type: functional
[27] = Inhibition of IL5 production in transgenic BALB/c mouse TH2 cells at 100 uM after 48 hrs; type: functional
[28] = Inhibition of IL5 production in transgenic BALB/c mouse TH2 cells at 50 uM after 48 hrs; type: functional
[29] = Inhibition of IL5 production in transgenic BALB/c mouse TH2 cells at 10 uM after 48 hrs; type: functional
[30] = Inhibition of IL13 production in transgenic BALB/c mouse TH2 cells at 100 uM after 48 hrs; type: functional
[31] = Inhibition of IL13 production in transgenic BALB/c mouse TH2 cells at 50 uM after 48 hrs; type: functional
[32] = Inhibition of IL13 production in transgenic BALB/c mouse TH2 cells at 10 uM after 48 hrs; type: functional
[33] = Inhibition of IL10 production in transgenic BALB/c mouse TH2 cells at 100 uM after 48 hrs; type: functional
[34] = Inhibition of IL10 production in transgenic BALB/c mouse TH2 cells at 50 uM after 48 hrs; type: functional
[35] = Inhibition of IL10 production in transgenic BALB/c mouse TH2 cells at 10 uM after 48 hrs; type: functional
TH2 [36] = assay: Antiproliferative activity in transgenic BALB/c mouse TH2 cells assessed as [3H]thymidine incorporation after […]; type: functional, cell-based
TH2 [37] = assay: Induction of apoptosis in transgenic BALB/c mouse TH2 cells after 48 hrs by FACS; type: functional, cell-based
Jurkat [38] = assay: Induction of apoptosis in human Jurkat cells after 48 hrs by FACS; type: functional, cell-based
Dendritic cell = assay: Induction of apoptosis in LPS-stimulated BALB/c mouse bone marrow-derived dendritic cells after 48 hrs by ELISA; type: functional, cell-based
Mus musculus [39] = assay: Antiasthmatic activity in ovalbumin-challenged BALB/c mouse assessed as reduction in airway hyperresponsiveness at 100 ug, intratracheally administered 4 hrs after challenge; type: functional, organism-based
TH2 [40] = assay: Inhibition of TCR-mediated NF-kappaB activation in transgenic BALB/c mouse TH2 cells at 100 uM by EMSA; type: cell-based
TH2 [41] = assay: Inhibition of TCR-mediated JNK1 activation in transgenic BALB/c mouse TH2 cells at 100 uM by in vitro kinase assay; type: cell-based
TH2 [42] = assay: Inhibition of TCR-mediated ERK activation in transgenic BALB/c mouse TH2 cells at 100 uM by Western blotting; type: cell-based
TH2 [43] = assay: Inhibition of TCR-mediated NFAT activation in transgenic BALB/c mouse TH2 cells at 100 uM by Western blotting; type: cell-based
Jurkat [44] = assay: Inhibition of TCR-mediated NF-kappaB activation in human Jurkat cells at 100 uM by EMSA; type: cell-based
Jurkat [45] = assay: Inhibition of TCR-mediated JNK1 activation in human Jurkat cells at 100 uM by in vitro kinase assay; type: cell-based
Jurkat [46] = assay: Inhibition of TCR-mediated ERK activation in human Jurkat cells at 100 uM by Western blotting; type: cell-based
Jurkat [47] = assay: Inhibition of TCR-mediated NFAT activation in human Jurkat cells at 100 uM by Western blotting; type: cell-based
Jurkat [48] = assay: Inhibition of TCR-mediated IkappaB degradation in human Jurkat cells after 30 mins by immunoblotting; type: cell-based
HEK293 [49] = assay: Inhibition of PKC-theta-induced NF-kappaB activation in HEK293 cells by luciferase reporter gene assay; type: functional, cell-based; conditions: Homo sapiens
HEK293 [50] = assay: Inhibition of Carma1-induced NF-kappaB activation in HEK293 cells by luciferase reporter gene assay; type: functional, cell-based; conditions: Homo sapiens
HEK293 [51] = assay: Inhibition of Bcl10-induced NF-kappaB activation in HEK293 cells by luciferase reporter gene assay; type: functional, cell-based; conditions: Homo sapiens
[52] = target: T-cell-specific surface glycoprotein CD28 (Homo sapiens) (UniProt P10747); assay: Inhibition of CD28-induced NF-kappaB activation in human Jurkat cells by EMSA; type: functional, cell-based
Chain of T-cell-specific surface glycoprotein CD28 (Homo sapiens) (P10747 whole entry): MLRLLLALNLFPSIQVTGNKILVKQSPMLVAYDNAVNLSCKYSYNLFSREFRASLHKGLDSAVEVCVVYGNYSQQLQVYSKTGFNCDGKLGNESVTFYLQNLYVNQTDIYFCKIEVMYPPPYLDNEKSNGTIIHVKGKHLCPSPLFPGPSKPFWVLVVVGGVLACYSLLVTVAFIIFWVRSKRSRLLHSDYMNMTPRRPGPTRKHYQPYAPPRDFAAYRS

Jurkat [53] = assay: Inhibition of CD3/CD28-induced NF-kappaB activation in human Jurkat cells by EMSA; type: cell-based
[54] = Inhibition of IFN-gamma production in transgenic TH1 cells at 500 uM after 48 hrs; type: functional
[55] = Inhibition of IFN-gamma production in transgenic TH1 cells at 100 uM after 48 hrs; type: functional
[56] = Inhibition of IFN-gamma production in transgenic TH1 cells at 50 uM after 48 hrs; type: functional
[57] = Inhibition of IFN-gamma production in transgenic TH1 cells at 10 uM after 48 hrs; type: functional
TH1 = assay: Induction of apoptosis in transgenic TH1 cells after 48 hrs by FACS; type: functional, cell-based
[58] = target: 3-phosphoinositide-dependent protein kinase 1 (Homo sapiens) (UniProt O15530); assay: Inhibition of recombinant PDK1 autophosphorylation by in vitro kinase assay
Chain of 3-phosphoinositide-dependent protein kinase 1 (Homo sapiens) (O15530 whole entry, looked up): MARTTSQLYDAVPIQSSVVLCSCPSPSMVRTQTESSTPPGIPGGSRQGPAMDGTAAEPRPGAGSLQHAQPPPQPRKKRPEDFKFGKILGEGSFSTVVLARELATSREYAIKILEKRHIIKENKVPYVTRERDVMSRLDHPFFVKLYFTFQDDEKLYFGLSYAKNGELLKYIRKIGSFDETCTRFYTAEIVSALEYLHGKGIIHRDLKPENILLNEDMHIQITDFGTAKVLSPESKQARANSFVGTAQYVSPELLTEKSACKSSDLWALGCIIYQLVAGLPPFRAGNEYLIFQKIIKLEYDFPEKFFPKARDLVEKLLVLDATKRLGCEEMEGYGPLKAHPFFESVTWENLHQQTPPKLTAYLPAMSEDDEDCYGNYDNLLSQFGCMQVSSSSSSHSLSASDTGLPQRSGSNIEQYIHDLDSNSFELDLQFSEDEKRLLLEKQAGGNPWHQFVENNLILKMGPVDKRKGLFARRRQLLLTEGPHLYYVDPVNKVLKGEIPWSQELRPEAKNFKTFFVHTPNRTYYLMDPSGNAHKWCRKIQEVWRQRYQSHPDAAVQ

[59] = target: 3-phosphoinositide-dependent protein kinase 1 (Homo sapiens) (UniProt O15530); assay: Inhibition of PDK1 phosphorylation in human Jurkat cells by Western blotting

`O=C(O)c1cccnc1C(=O)O` [QUINOLINIC ACID] showed an Activity (Mus musculus [1]) of 335000, an Activity (Mus musculus [2]) of 312 pg/mL and an Activity (Mus musculus [3]) of 263 pg/mL. For the same compound, the Activity [4] was 4.19 ng/mL, the Activity [5] was 15.4 ng/mL and the Activity [6] was 8.36 ng/mL. It also gave an Activity [7] of 11.3 ng/mL.
In the case of `Nc1c(O)cccc1C(=O)O`, the Activity (Mus musculus [8]) was 84000, the Activity (Mus musculus [9]) was 153 pg/mL and the Activity (Mus musculus [10]) was 88 pg/mL. For the same compound, the Activity (Mus musculus [11]) was 58000, the Activity (Mus musculus [12]) was 144 pg/mL and the Activity (Mus musculus [13]) was 91 pg/mL. It also gave an Activity (Mus musculus [14]) of 190000, an Activity (Mus musculus [15]) of 219 pg/mL and an Activity (Mus musculus [16]) of 147 pg/mL. It also gave an Activity (Mus musculus [17]) of 11000, an Activity (Mus musculus [18]) of less than 10 pg/mL and an Activity (Mus musculus [19]) of less than 10 pg/mL. The Activity (TH2 [20]) was “Active”, the Activity (Mus musculus [21]) was “Active” and the Activity (Mus musculus [1]) was 155000. For the same compound, the Activity (Mus musculus [2]) was 141 pg/mL, the Activity (Mus musculus [3]) was 66 pg/mL and the Activity (Mus musculus [22]) was “Active”. For the same compound, the Activity (Mus musculus [23]) was “Active”, the Activity [24] was 2 ng/mL and the Activity [25] was 6.7 ng/mL. For the same compound, the Activity [26] was 11.5 ng/mL, the Activity [27] was less than 0.1 ng/mL and the Activity [28] was 1.15 ng/mL. The Activity [29] was 3.24 ng/mL, the Activity [30] was 1.7 ng/mL and the Activity [31] was 4.3 ng/mL. For the same compound, the Activity [32] was 14.9 ng/mL, the Activity [33] was 2.37 ng/mL and the Activity [34] was 4.88 ng/mL. The Activity [35] was 7.77 ng/mL, the Activity (TH2 [36]) was “Active” and the Activity (TH2 [37]) was “Active”. For the same compound, the Activity (Jurkat [38]) was “Active”, the Activity (Dendritic cell) was “inactive” and the Activity (Mus musculus [39]) was “Active”. For the same compound, the Activity (TH2 [40]) was “Active”, the Activity (TH2 [41]) was “inactive” and the Activity (TH2 [42]) was “inactive”. For the same compound, the Activity (TH2 [43]) was “inactive”, the Activity (Jurkat [44]) was “Active” and the Activity (Jurkat [45]) was “inactive”. For the same compound, the Activity (Jurkat [46]) was “inactive”, the Activity (Jurkat [47]) was “inactive” and the Activity (Jurkat [48]) was “inactive”. For the same compound, the Activity (HEK293 [49]) was “inactive”, the Activity (HEK293 [50]) was “inactive” and the Activity (HEK293 [51]) was “inactive”. The Activity [52] was “Active”, the Activity (Jurkat [53]) was “Active” and the Activity [54] was 1.7 ng/mL. The Activity [55] was 1.8 ng/mL, the Activity [56] was 1 ng/mL and the Activity [57] was 29.7 ng/mL. The Activity (TH1) was “Active”, the Activity [58] was “Dose-dependent effect” and the Activity [59] was “Active”.
